Entries after “also recorded” stand apart in the source; their conditions may differ.
Key:
KOR [1] = biological target: T1, KOR (Homo sapiens, UniProt P41145); type: binding
KOR [2] = biological target: T1, KOR; type: binding; remark: listed apart in the source
KOR [3] = biological target: T1, KOR; type: biochemical
[4] = cited from earlier work

T1 sequence (P41145 whole entry): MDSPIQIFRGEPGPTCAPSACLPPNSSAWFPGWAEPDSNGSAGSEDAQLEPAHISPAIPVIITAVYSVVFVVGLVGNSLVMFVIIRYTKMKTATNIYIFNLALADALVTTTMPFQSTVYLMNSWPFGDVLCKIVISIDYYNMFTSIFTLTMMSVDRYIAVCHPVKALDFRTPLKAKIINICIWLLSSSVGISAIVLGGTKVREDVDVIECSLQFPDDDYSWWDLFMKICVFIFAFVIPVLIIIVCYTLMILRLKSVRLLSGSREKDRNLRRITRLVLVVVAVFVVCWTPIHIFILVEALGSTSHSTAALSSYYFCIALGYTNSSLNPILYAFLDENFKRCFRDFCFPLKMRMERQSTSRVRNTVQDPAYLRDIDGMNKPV

Row | SMILES | DOR/KOR (KOR [1]) | MOR/KOR (KOR [1]) | affinity at KOR (in words) (KOR [1]) | displacement of [3H]diprenorphine at KOR (in words) (KOR [2]) | agonist activity at KOR (in words) (KOR [3]) | stability (in words) [4]
1 | COC(=O)[C@@H]1C[C@H](OC(=O)[C@H](C)N)C(=O)[C@H]2[C@@]1(C)CC[C@H]1C(=O)O[C@H](c3ccoc3)C[C@]21C [Analogue 10] | >2.64 | >2.64 | μM affinity; also recorded: in a μM range | did not displace [^3H]diprenorphine; also recorded: did not displace KOR antagonist binding |  | 
2 | COC(=O)[C@@H]1C[C@H](OC(=O)[C@@H](N)C(C)C)C(=O)[C@H]2[C@@]1(C)CC[C@H]1C(=O)O[C@H](c3ccoc3)C[C@]21C [Analogue 12, 2-(2′-(S)-amino-3-methylbutanoate) salvinorin B] | >238 | >238 |  |  | full agonist | 
3 | NCC(=O)O [Gly] |  |  |  |  |  | unstable
4 | CNCC(=O)O [Sar] |  |  |  |  |  | unstable
